The values below come from US20230303569A1, “HETEROCYCLIC COMPOUNDS AS THERAPEUTIC AGENTS” (Arisan Therapeutics Inc., priority 2021, published 2023).

Common to all, as to format: cell-based
The target of series [1] is T1, human Nav1.2 (Homo sapiens, UniProt Q99250).
T1 construct: host or cells: HEK293
As to the kind of experiment: Two pulse assay protocol, Nav1.2. To be noted: peak current. The protocol:
(§1) In vitro Na+ Current Inhibition Assays were performed by Eurofins Discovery (St Charles, MO). All compound functional activity determinations were determined through electrophysiological analyses of Na+ currents in HEK293 cells expressing a stably transfected Na+ channel (human Nav1.1, 1.2, 1.3, 1.5, 1.6, 1.7, or 1.8). After harvesting with Accutase cells are maintained in serum free medium at room temperature prior to electrophysiological recording utilizing the QPatch HT automated whole-cell patch-clamp platform (Sophion Bioscience, Woburn MA). Stock solution aliquots of the test compound are prepared in DMSO at 300× the final assay concentrations, and stored at −20° C. until the day of assay. On the day of the assay, an aliquot of the stock solution is thawed and diluted into external solution (137 mM NaCl, 4 mM KCl, 1 mM MgCl2, 1.8 mM CaCl2, 10 mM HEPES, 10 mM Glucose (pH 7.3, titrated with 10M NaOH) to make final test concentrations. A final concentration of 0.33% DMSO is maintained for each concentration of the assay compounds. Internal solution for recordings of Na+ consist consists of 100 mM CsF, 45 mM CsCl, 5 mM NaCl, 10 mM HEPES, 5 mM EGTA (pH 7.3, titrated with 1M CsOH).
(§2) Two pulse assay protocol for human Nav1.1, 1.2, 1.3, 1.5, 1.6, 1.7, and 1.8 channels. Mammalian cultured cells expressing the indicated human Nav1.1, 1.2, 1.3, 1.5, 1.6, 1.7 or 1.8 channels were assayed using the The QPatch HT (Sophion Bioscience, Woburn MA) automated system with an intracellular solution (mM) of 100 CsF, 45 CsCl, 5 NaCl, 10 HEPES, 5 EGTA (pH 7.3, titrated with 1M CsOH) and extracellular solution (mM) of 137 NaCl, 4 KCl, 1 MgCl2, 1.8 CaCl2, 10 HEPES, 10 Glucose (pH 7.3, titrated with 10M NaOH). Onset and steady state block of the sodium channel was measured using a pulse pattern, repeated every 20 seconds (s) from a holding potential of −120 mV for 100 ms, and then pulsed to 0 mV for 500 ms to inactivate the Na channels and facilitate inactivated state-dependent binding of the test compounds. The cell membranes were then stepped back to −120 mV for 10 ms to recover from inactivation into resting or closed state (channels with test compound bound to them will not recover from inactivation and will not open) before stepping to 0 mV for 50 ms (pulse 2) to measure Na channels that are available to open. Peak current was measured during the step to 0 mV at pulse 1 and 2 to measure tonic and state-dependent inhibition. Compound activities were assessed by dividing post current amplitude (at the end of each five (5) minute compound application) by the vehicle control amplitude and the mean calculated for each compound concentration. Tetracaine was used as a positive control and was tested concurrently with the test compounds. Current amplitudes in excess of 200 pA at the control stage were analyzed. The amplitude of the current was calculated by measuring the difference between the peak inward current on stepping to 0 mV (i.e. peak of the current) and remaining current at the end of the step. The current was assessed in vehicle control conditions and then at the end of each five (5) minute compound application.

Series [2] addresses T2, human Nav1.7 (Homo sapiens, UniProt Q15858).
T2 construct: host or cells: HEK293
As to the kind of experiment: Two pulse assay protocol, Nav1.7. To be noted: peak current. The protocol:
as §1, §2

Series [3] deals with T3, human Nav1.5 (pulse 2, state-dependent inhibition) (Homo sapiens, UniProt Q14524).
T3 construct: host or cells: HEK293
Briefly: Two pulse assay protocol, Nav1.5. To be noted: HEK293 cells stably expressing human Nav1.5, pH 7.3, peak current, pulse 2 (state-dependent), read-out: percent inhibition hNav1.5, Pulse 2 (5 uM). The protocol: as §1, §2

For series [4], the target named is T4, human Nav1.5 (pulse 1, tonic inhibition) (Homo sapiens, UniProt Q14524).
T4 construct: host or cells: HEK293
As to the kind of experiment: Two pulse assay protocol, Nav1.5. To be noted: HEK293 cells stably expressing human Nav1.5, pH 7.3, peak current, pulse 1 (tonic), read-out: percent inhibition hNav1.5, Pulse 1 (5 uM). The procedure: as §1, §2

The target in series [5] is T5, human Nav1.6 (Homo sapiens, UniProt Q9UQD0).
T5 construct: host or cells: HEK293
As to the kind of experiment: Two pulse assay protocol, Nav1.6. To be noted: 5 uM, peak current. The procedure: as §1, §2

Series [6] deals with T6, human Nav1.5 (late current) (Homo sapiens, UniProt Q14524).
T6 construct: host or cells: HEK293
As to the kind of experiment: Nav1.5 Late Current Assay (QPatch HT whole-cell patch clamp, 30 nM ATX-II). Conditions: HEK293 cells stably expressing human Nav1.5, pH 7.3, late current with 30 nM ATX-II, read-out: percent inhibition hNav1.5 Late (5 uM). The procedure:
as §1
Onset and steady state induction of late Nav1.5 current was measured using a pulse pattern, repeated every 5 sec, consisting of a hyperpolarizing pulse to −120 mV for a 200 ms duration, depolarization to −15 mV amplitude for a 40 ms duration, followed by step to 40 mV for 200 ms and finally a 100 ms ramp (1.2 V/s) to a holding potential of −80 mV. Each concentration of compound was applied for 5 minutes. The assay was performed at room temperature. After establishing vehicle control condition, all further addition of external solutions contain 30 nM ATX-II to activate late currents. Each concentration of compound was also co-applied with 30 nM ATXII to estimate the Nav1.5 late current inhibition. […]. ATXII was used as the agonist positive control and was tested concurrently with the test compound. Ranolazine was used as the positive control and was tested concurrently with the test compound.
Nav1.5 late current was measured as the total charge flowing through the Nav1.5 channels (area under the curve) 5 ms after the Nav1.5 peak current till the end of the test pulse and as charge at their maxima during the ramp. Individual cell results were normalized to their respective vehicle control and the results were averaged. The sodium current was assessed in 30 nM ATXII as vehicle control conditions and then at the end of each five (5) minute compound application in the presence of 30 nM ATXII. Individual cell result was normalized to 30 nM ATXII vehicle control amplitude and the mean±SEM calculated for each compound concentration.
For orientation: In patch-clamp work, channel activity is measured electrically.

The target of series [7] is T7, human Nav1.8 (Homo sapiens, UniProt Q9Y5Y9).
T7 construct: host or cells: HEK293
As to the kind of experiment: Two pulse assay protocol, Nav1.8. To be noted: peak current. The procedure: as §1, §2

Series [8] addresses T8, human Nav1.5 (peak current) (Homo sapiens, UniProt Q14524).
T8 construct: host or cells: HEK293
As to the kind of experiment: Nav1.5 Peak Current Assay (QPatch HT whole-cell patch clamp). Conditions: HEK293 cells stably expressing human Nav1.5, pH 7.3, peak current at step to -15 mV, read-out: percent inhibition hNav1.5 Peak (5 uM). The procedure:
as §1
Onset and steady state block of peak Nav1.5 current was measured using a pulse pattern, repeated every 5 sec, consisting of a hyperpolarizing pulse to −120 mV for a 200 ms duration, depolarization to -15 mV amplitude for a 40 ms duration, followed by step to 40 mV for 200 ms and finally a 100 ms ramp (1.2 V/s) to a holding potential of −80 mV. Peak current was measured during the step to −15 mV.
Each concentration of compound was applied for 5 minutes. The assay was performed at room temperature and Tetracaine was used concurrently as a positive control. Only current amplitudes in excess of 200 pA at the control stage were analyzed. The amplitude of the sodium current was calculated by measuring the difference between the peak inward current on stepping to −15 mV (i.e. peak of the current) and the leak current. The sodium current was assessed in vehicle control conditions and then at the end of each five (5) minute compound application. Individual cell result was normalized to the vehicle control amplitude and the mean±SEM calculated for each compound concentration.

[9] abbreviates: pulse 1 (tonic), read-out: percent inhibition hNav1.2, Pulse 1 (5 uM).
Setting [10] is: pulse 2 (state-dependent), read-out: percent inhibition hNav1.2, Pulse 2 (5 uM).
[11] abbreviates: pulse 1 (tonic), read-out: percent inhibition hNav1.7, Pulse 1 (5 uM).
Setting [12] is: pulse 2 (state-dependent), read-out: percent inhibition hNav1.7, Pulse 2 (5 uM).
Setting [13] is: pulse 1 (tonic), read-out: percent inhibition hNav1.6, Pulse 1 (5 uM).
The mark [14] stands for this setting: pulse 2 (state-dependent), read-out: percent inhibition hNav1.6, Pulse 2 (5 uM).
[15] abbreviates: pulse 1 (tonic), read-out: percent inhibition hNav1.8, Pulse 1 (5 uM).
[16] abbreviates: pulse 2 (state-dependent), read-out: percent inhibition hNav1.8, Pulse 2 (5 uM).

Read-outs that look alike come from different tables or passages of the source. Some results are limits rather than exact numbers.

T2 sequence (Q15858 whole entry): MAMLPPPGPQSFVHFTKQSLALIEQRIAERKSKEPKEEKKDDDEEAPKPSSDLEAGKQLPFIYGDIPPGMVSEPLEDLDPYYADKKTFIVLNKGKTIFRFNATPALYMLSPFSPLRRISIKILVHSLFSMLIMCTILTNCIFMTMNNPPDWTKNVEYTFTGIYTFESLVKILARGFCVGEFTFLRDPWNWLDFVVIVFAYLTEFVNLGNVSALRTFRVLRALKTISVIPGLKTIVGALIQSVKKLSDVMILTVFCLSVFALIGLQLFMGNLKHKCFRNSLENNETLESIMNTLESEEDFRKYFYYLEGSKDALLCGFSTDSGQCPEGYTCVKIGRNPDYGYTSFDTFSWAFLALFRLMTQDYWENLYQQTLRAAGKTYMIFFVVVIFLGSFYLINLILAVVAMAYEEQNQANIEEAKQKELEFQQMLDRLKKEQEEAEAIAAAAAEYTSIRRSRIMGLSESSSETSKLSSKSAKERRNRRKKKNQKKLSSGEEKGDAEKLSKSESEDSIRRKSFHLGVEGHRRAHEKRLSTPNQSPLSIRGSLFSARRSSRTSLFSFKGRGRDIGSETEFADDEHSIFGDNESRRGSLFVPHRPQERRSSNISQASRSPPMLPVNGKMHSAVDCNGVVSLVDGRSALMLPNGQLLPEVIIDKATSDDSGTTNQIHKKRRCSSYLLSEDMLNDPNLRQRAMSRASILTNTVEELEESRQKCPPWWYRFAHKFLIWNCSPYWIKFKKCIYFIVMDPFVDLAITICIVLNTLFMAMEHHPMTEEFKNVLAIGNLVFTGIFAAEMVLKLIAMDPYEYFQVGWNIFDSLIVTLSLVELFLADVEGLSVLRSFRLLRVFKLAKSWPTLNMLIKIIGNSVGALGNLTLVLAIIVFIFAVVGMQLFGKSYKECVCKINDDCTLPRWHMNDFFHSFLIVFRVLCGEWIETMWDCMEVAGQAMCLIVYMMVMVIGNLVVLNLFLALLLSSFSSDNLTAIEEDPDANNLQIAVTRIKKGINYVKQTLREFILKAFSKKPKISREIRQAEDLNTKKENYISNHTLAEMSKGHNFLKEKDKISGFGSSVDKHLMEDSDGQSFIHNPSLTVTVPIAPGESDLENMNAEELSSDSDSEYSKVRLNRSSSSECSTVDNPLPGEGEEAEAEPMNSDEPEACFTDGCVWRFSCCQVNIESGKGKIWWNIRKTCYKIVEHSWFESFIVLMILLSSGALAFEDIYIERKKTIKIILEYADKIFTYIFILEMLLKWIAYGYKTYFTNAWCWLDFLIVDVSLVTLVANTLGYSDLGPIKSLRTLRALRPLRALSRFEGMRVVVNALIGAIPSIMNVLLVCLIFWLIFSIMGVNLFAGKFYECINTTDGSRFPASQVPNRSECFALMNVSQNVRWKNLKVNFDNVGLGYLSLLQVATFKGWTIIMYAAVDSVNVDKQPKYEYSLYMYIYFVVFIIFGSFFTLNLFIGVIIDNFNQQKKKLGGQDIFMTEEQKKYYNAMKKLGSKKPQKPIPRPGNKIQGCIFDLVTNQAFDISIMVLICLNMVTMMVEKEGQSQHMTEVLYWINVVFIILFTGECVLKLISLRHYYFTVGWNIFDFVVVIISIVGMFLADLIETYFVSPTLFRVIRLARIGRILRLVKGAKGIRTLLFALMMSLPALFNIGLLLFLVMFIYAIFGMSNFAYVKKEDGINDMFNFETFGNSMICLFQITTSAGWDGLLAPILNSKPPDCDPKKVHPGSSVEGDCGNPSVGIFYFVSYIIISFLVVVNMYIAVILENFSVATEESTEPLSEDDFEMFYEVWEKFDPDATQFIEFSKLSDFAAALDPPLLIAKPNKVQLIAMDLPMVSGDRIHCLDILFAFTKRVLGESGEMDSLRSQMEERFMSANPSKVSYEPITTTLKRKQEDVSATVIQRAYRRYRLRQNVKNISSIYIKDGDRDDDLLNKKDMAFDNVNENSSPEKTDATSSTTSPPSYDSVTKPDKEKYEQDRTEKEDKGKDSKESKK
T1 sequence (Q99250 whole entry): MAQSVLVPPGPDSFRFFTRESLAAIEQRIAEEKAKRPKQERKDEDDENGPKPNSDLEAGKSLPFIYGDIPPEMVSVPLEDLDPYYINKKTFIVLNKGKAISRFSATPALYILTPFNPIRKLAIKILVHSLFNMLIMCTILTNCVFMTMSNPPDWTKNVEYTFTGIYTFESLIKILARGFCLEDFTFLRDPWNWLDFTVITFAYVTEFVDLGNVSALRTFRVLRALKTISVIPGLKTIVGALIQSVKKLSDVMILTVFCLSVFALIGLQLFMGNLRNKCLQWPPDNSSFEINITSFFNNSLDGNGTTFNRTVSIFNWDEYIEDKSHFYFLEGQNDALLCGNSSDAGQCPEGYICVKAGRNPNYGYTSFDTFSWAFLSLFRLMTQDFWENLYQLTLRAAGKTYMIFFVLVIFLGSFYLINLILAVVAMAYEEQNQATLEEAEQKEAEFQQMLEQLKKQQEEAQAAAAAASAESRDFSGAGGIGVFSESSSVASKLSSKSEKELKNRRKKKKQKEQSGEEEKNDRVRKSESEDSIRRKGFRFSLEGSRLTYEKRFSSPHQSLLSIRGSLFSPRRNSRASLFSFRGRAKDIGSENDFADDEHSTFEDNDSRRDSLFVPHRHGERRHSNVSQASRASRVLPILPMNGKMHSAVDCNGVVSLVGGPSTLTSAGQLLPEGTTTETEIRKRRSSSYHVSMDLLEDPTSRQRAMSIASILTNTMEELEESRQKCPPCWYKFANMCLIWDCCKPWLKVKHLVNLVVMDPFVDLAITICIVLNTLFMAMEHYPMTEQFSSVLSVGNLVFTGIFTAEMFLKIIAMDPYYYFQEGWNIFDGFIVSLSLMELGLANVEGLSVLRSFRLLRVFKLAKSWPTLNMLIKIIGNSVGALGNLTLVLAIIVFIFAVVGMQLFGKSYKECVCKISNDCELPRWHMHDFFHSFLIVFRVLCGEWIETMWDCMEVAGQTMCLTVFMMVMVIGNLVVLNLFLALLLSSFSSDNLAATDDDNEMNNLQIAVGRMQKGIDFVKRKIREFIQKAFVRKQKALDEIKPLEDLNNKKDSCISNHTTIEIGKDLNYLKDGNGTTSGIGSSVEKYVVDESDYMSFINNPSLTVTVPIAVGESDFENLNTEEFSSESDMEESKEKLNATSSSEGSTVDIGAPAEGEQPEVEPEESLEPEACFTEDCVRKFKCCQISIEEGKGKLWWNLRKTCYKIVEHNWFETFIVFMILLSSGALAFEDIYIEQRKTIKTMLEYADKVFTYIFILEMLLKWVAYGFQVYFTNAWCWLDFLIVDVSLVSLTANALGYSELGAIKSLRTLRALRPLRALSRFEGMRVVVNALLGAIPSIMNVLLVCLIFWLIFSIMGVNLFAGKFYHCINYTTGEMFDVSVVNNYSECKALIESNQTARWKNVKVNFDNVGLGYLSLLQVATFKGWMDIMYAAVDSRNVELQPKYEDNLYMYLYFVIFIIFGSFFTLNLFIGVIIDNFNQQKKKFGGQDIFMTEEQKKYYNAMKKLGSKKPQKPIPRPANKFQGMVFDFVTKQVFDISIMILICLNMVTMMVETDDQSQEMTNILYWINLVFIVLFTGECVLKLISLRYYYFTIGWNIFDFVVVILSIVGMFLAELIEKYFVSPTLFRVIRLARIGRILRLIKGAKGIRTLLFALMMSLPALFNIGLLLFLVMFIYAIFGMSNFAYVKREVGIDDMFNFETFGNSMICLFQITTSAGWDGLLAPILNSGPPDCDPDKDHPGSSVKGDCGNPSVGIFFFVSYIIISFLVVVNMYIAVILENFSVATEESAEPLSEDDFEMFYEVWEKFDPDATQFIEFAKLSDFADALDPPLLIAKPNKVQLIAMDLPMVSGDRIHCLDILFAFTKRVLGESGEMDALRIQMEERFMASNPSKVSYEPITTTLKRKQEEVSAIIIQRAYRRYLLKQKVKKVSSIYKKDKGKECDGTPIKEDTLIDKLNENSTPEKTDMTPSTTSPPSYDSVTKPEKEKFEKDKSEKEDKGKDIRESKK

One may read the inhibition as the share of the control response that was lost under treatment. For `CC(C)Oc1ccc(-c2ccc3ncc(-c4ccc(C(C)C)cc4)n3c2)cc1` [Example C73, 6-(4-isopropoxyphenyl)-3-(4-isopropylphenyl)imidazo[1,2-a]pyridine], the inhibition at 5 µM in series [1] (setting [9]) was less than 50%; in series [1] (setting [10]), greater than 90%; in series [2] (setting [11]), less than 50%; in series [2] (setting [12]), 50 to 90%; in series [5] (setting [13]), less than 50%; in series [5] (setting [14]), greater than 90%. The inhibition at 5 min, 5 µM in series [3] is greater than 90%; in series [4], less than 50%.
As for `CC(C)Oc1ccc(-c2ccc3ncc(-c4ccc(OC(C)C)nc4)n3c2)cc1` [Example C37, 2-(propan-2-yloxy)-5-{6-[4-(propan-2-yloxy)phenyl]imidazo[1,2-a]pyridin-3-yl}pyridine], in series [6], the inhibition at 5 min, 5 uM was greater than 90%. For the same molecule, the inhibition at 5 µM in series [2] (setting [11]) is less than 50%; in series [2] (setting [12]), greater than 90%; in series [7] (setting [15]) it was less than 50%; in series [7] (setting [16]) it was 50 to 90%; in series [5] (setting [13]), less than 50%; in series [5] (setting [14]) it was greater than 90%. In addition, the inhibition at 5 min, 5 µM in series [8] is less than 50%.
With `CC(C)Oc1ccc(-c2ccc3ncc(-c4ccc(Oc5ccccc5)cc4)n3c2)cc1` [Example C72, 6-(4-isopropoxyphenyl)-3-(4-phenoxyphenyl)imidazo[1,2-a]pyridine], the inhibition at 5 µM in series [1] (setting [9]) was less than 50%; in series [1] (setting [10]), greater than 90%; in series [2] (setting [11]) it was less than 50%; in series [2] (setting [12]) it was greater than 90%; in series [5] (setting [13]), less than 50%; in series [5] (setting [14]), greater than 90%. Also, the figures for the inhibition at 5 min, 5 µM in series [3] and in series [4] were 50 to 90% and less than 50%, respectively.
On to `CS(=O)(=O)NC(=O)c1cc2ncc(-c3ccc(OC(F)(F)F)cc3)n2cc1-c1ccc(OC(F)(F)F)cc1` [Example C67, N-(methylsulfonyl)-3,6-bis(4-(trifluoromethoxy)phenyl)imidazo[1,2-a]pyridine-7-carboxamide], for which the inhibition at 5 µM in series [2] (setting [11]), in series [2] (setting [12]), in series [7] (setting [15]) and in series [7] (setting [16]) was less than 50% in each case. The inhibition at 5 min, 5 µM in series [3] and in series [4] was less than 50% each time.
Take `Cc1cc2ncc(-c3ccc(OC(C)C)nc3)n2cc1-c1ccc(OC(C)C)cc1` [Example C70, 6-(4-isopropoxyphenyl)-3-(6-isopropoxypyridin-3-yl)-7-methylimidazo[1,2-a]pyridine]: in series [6], the inhibition at 5 min, 5 uM was 50 to 90%. For the same molecule, the inhibition at 5 µM in series [5] (setting [13]) and in series [5] (setting [14]) was less than 50% in each case. In addition, the inhibition at 5 min, 5 µM in series [8] is less than 50%.
For the molecule `CC(C)Oc1ccc(-c2ccc3ncc(-c4ccc(OC(C)(C)C)cc4)n3c2)cc1` [Example C32, 3-[4-(tert-butoxy)phenyl]-6-[4-(propan-2-yloxy)phenyl]imidazo[1,2-a]pyridine], the inhibition at 5 min, 5 uM in series [6] is greater than 90%. For the same molecule, the results for the inhibition at 5 µM in series [5] (setting [13]) and in series [5] (setting [14]) were less than 50% and greater than 90%, respectively. In addition, the inhibition at 5 min, 5 µM in series [8] fell in the range of 50 to 90%.
Take `CS(=O)(=O)NC(=O)c1ccn2c(-c3ccc(OC(F)(F)F)cc3)cnc2c1` [Example C66, N-(methylsulfonyl)-3-(4-(trifluoromethoxy)phenyl)imidazo[1,2-a]pyridine-7-carboxamide]: the inhibition at 5 µM in series [2] (setting [11]), in series [2] (setting [12]), in series [7] (setting [15]) and in series [7] (setting [16]) was less than 50% each time. Also, the inhibition at 5 min, 5 µM in series [3] and in series [4] was less than 50% in each case.
For `CS(=O)(=O)NC(=O)c1cc2ncc(-c3ccc(OC(F)(F)F)cc3)n2cc1-c1ccccc1` [Example C68, N-(methylsulfonyl)-6-phenyl-3-(4-(trifluoromethoxy)phenyl)imidazo[1,2-a]pyridine-7-carboxamide], the inhibition at 5 µM in series [2] (setting [11]), in series [2] (setting [12]), in series [7] (setting [15]) and in series [7] (setting [16]) was less than 50% in each case. Besides, the inhibition at 5 min, 5 µM in series [3] and in series [4] was less than 50% in each case.
As to `CC(C)Oc1ccc(-c2ccc3ncc(-c4ccc(C(C)(C)C)cc4)n3c2)cc1` [Example C87, 3-(4-(tert-butyl)phenyl)-6-(4-isopropoxyphenyl)imidazo[1,2-a]pyridine], the inhibition at 5 µM was less than 50% in series [2] (setting [11]), greater than 90% in series [2] (setting [12]), less than 50% in series [5] (setting [13]) and greater than 90% in series [5] (setting [14]). Also, the inhibition at 5 min, 5 µM is greater than 90% in series [3] and less than 50% in series [4].
